The target of one test is T1, glucocorticoid receptor (Homo sapiens, UniProt P04150).
T1 construct: a partially purified full length glucocorticoid receptor
T1 sequence (P04150 1-777): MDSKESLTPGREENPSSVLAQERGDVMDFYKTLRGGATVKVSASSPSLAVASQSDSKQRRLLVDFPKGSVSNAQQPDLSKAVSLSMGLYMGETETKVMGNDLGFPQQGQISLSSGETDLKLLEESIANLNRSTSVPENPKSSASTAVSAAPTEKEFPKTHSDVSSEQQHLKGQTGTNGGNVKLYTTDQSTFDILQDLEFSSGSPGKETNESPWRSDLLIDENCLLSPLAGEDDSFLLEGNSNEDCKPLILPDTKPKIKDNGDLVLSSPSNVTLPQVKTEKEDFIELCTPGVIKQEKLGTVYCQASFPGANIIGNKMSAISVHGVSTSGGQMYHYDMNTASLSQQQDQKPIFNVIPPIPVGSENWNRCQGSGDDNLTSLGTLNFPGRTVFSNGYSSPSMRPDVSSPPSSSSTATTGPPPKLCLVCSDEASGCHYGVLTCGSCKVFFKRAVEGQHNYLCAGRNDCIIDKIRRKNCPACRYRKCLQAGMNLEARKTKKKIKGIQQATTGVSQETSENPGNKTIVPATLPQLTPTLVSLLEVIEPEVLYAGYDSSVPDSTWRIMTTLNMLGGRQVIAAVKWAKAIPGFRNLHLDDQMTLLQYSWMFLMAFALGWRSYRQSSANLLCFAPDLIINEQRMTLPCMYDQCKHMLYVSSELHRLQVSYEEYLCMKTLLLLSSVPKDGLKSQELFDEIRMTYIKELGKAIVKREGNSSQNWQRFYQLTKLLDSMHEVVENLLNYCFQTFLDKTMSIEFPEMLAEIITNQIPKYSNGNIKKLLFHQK
Nature of the test: Glucocorticoid Receptor Binding Assay (fluorescence polarisation, displacement of Alexa 555 labelled dexamethasone derivative). Conditions: at least once in this assay; read-out: glucocorticoid binding pIC50 (converted). The method, then: Compounds were solvated and diluted in DMSO, and transferred directly into assay plates. Fluorescent dexamethasone and a partially purified full length glucocorticoid receptor were added to the plates, together with buffer components to stabilise the GR protein and incubated at room temperature for 2 hr in the dark. Binding of each compound was assessed by analysing the displacement of fluorescent ligand by measuring the decrease in fluorescence polarisation signal from the mixture.

In test [1] the target is T2, GR (Homo sapiens, UniProt P04150).
T2 construct: endogenous in cells; host or cells: A549 (human lung carcinoma, ECACC No. 86012804), stably transfected with reporter plasmids only
T2 sequence (P04150 1-777): T1 sequence (P04150 1-777)
Nature of the test: GR Functional Assay - NFκB Assay (A549 SPAP cells, TNFα stimulated). Conditions: for Emax: agonists, read-out: average maximum asymptote in the NFkB assay. The test is classed as cell-based. The method, then: Stimulation of the cell line with TNFα results in intracellular signal transduction and ultimately translocation of NFκB into the nucleus. This activates the inserted DNA sequence resulting in transcription of the integrated SPAP gene, which is quantified using a calorimetric assay. […] The stably transfected cell line was grown as a monolayer in DMEM supplemented with FCS-HI (10%), Non-essential amino acids (1%), L-Glutamine (2 mM), Pen/Strep (1%) and Geneticin (50 mg/ml).
A 70% confluent T225 flask of A549 SPAP cells was harvested by centrifugation for 5 mins at 200 g, resuspended in assay buffer (DMEM supplemented with 10% FCS 2×HI, 2 mM L-Glutamine, 1% Pen/Strep and Non essential amino acids) and diluted to 0.16×10^6/ml. 60 μl of cell solution was dispensed to each well of clear Nunc 384-well plates, containing compound at the required concentration. […] Plates were equilibrated to room temperature for 1 hr prior to the addition of 25 μl of pNPP buffer (1M Diethanolamine pH 9.8, 0.5 mM MgCl2, 0.28M NaCl, 2 mg/ml pNPP) to each well of assay plates.

For test [2], the target named is T2, GR. Nature of the test: GR Agonist Assay - MMTV Assay (A549 MMTV cells, renilla luciferase reporter). It counts as cell-based. Conditions: 6 h, agonists, read-out: average maximum asymptote in the MMTV agonist assay. The method, then:
Stimulation of the cell line with GR agonists results in intracellular signal transduction and ultimately translocation of GR into the nucleus. This activates the inserted DNA sequence resulting in transcription of the integrated luciferase gene, which is quantified using a light emission. The stably transfected cell line was grown as a monolayer in DMEM supplemented with FCS-HI (10%), Non-essential amino acids (1%), L-Glutamine (2 mM), Pen/Strep (1%) and Geneticin (50 mg/ml).
A 90% confluent T175 flask of A549 MMTV cells was harvested by centrifugation for 5 min at 200 g, resuspended in assay buffer (DMEM supplemented with 10% FCS 2×HI, 2 mM Glutamax, Non essential amino acids and 25 mM HEPES) and diluted to 0.1×10^6/ml. 70 μl of cell solution was dispensed to each well of white Nunc 384-well plates, containing compound at the required concentration. […] The plates were covered to protect the reagents from light, and then incubated at room temperature for approximately 15 mins before reading them on a Viewlux.

Where [3] appears, read: at least once, examples listed as agonists in NFkB and MMTV assays, read-out: potency pIC50 in the NFKB assay (converted).
The mark [4] stands for this setting: at least once in the NFkB assay, A549 SPAP cells, read-out: pIC50 in the NFkB assay (converted).

The values below come from patent US20100035926A1, “PYRAZOLE DERIVATIVES AS NON-STEROIDAL GLUCOCORTICOID RECEPTOR LIGANDS” (priority 2006, published 2010).

Like-named read-outs stand apart in the source and are kept apart here. Bounds are passed on as bounds.

Turning to `Nc1c(C(=O)NCC(O)(CN(CCF)C(=O)c2ccccc2C(F)(F)F)C(F)(F)F)cnn1-c1ccc(F)cc1` (racemic) [Example 10 (racemic), 5-amino-1-(4-fluorophenyl)-N-{3,3,3-trifluoro-2-[((2-fluoroethyl){[2-(trifluoromethyl)phenyl]carbonyl}amino)methyl]-2-hydroxypropyl}-1H-pyrazole-4-carboxamide], the figures for the IC50 at glucocorticoid receptor and at GR [1] (setting [3]) were less than 1000 nM and less than 316 nM, respectively. The Emax on GR [1] (A549 SPAP cells) and on GR [2] was no less than 40% each time.
As to `Nc1c(C(=O)NCC(O)(CN(CCF)C(=O)c2ccccc2OC(F)F)C(F)(F)F)cnn1-c1ccc(F)cc1` (racemic) [Example 11 (racemic), 5-amino-N-(2-{[({2-[(difluoromethyl)oxy]phenyl}carbonyl) (2-fluoroethyl)amino]methyl}-3,3,3-trifluoro-2-hydroxypropyl)-1-(4-fluorophenyl)-1H-pyrazole-4-carboxamide], the Emax on GR [1] (A549 SPAP cells) and on GR [2] was no less than 40% each time. Further, on GR [1] (setting [3]), the IC50 was less than 316 nM.
As to `CCN(CC(O)(CNC(=O)c1cnn(-c2ccc(F)cc2)c1N)C(F)(F)F)C(=O)c1ccccc1OC(F)F` (racemic) [Example 12 (racemic), 5-amino-N-(2-{[({2-[(difluoromethyl)oxy]phenyl}carbonyl) (ethyl)amino]methyl}-3,3,3-trifluoro-2-hydroxypropyl)-1-(4-fluorophenyl)-1H-pyrazole-4-carboxamide], the results for the IC50 on glucocorticoid receptor and on GR [1] (setting [3]) were less than 1000 nM and less than 316 nM, respectively. In addition, the Emax on GR [1] (A549 SPAP cells) and at GR [2] was no less than 40% throughout.
Take `CCN(CC(O)(CNC(=O)c1cnn(-c2ccc(F)cc2)c1N)C(F)(F)F)C(=O)c1ccccc1C(C)=O` (racemic) [Example 13 (racemic), N-(2-{[[(2-acetylphenyl)car-bonyl](ethyl)amino]methyl}-3,3,3-trifluoro-2-hydroxypropyl)-5-amino-1-(4-fluorophenyl)-1H-pyrazole-4-carboxamide]: the results for the IC50 on glucocorticoid receptor and on GR [1] (setting [3]) were less than 1000 nM and less than 316 nM, respectively. Besides, the Emax on GR [1] (A549 SPAP cells) and at GR [2] was no less than 40% in each case.
Turning to `CCN(CC(O)(CNC(=O)c1cnn(-c2ccc(F)cc2)c1N)C(F)(F)F)C(=O)c1ccc(Cl)cc1` (racemic) [Example 19 (racemic), 5-amino-N-(2-{[[(4-chlorophenyl)car-bonyl](ethyl)amino]methyl}-3,3,3-trifluoro-2-hydroxypropyl)-1-(4-fluorophenyl)-1H-pyrazole-4-carboxamide], the IC50 on glucocorticoid receptor is less than 1000 nM.
Regarding `CCN(CC(O)(CNC(=O)c1cnn(-c2ccc(F)cc2)c1N)C(F)(F)F)C(=O)c1ccc(F)c(F)c1` (racemic) [Example 21 (racemic), 5-amino-N-(2-{[[(3,4-difiuorophenyl)car-bonyl](ethyl)amino]methyl}-3,3,3-trifluoro-2-hydroxypropyl)-1-(4-fluorophenyl)-1H-pyrazole-4-carboxamide], the IC50 on glucocorticoid receptor and at GR [1] (setting [4]) was less than 1000 nM in each case.
As for `CCN(CC(O)(CNC(=O)c1cnn(-c2ccc(F)cc2)c1N)C(F)(F)F)C(=O)c1cccc(C(C)=O)c1` (racemic) [Example 22 (racemic), N-(2-{[[(3-acetylphenyl)car-bonyl](ethyl)amino]methyl}-3,3,3-trifluoro-2-hydroxypropyl)-5-amino-1-(4-fluorophenyl)-1H-pyrazole-4-carboxamide], the IC50 at glucocorticoid receptor was less than 1000 nM.
For the compound `CN(CC(O)(CNC(=O)c1cnn(-c2ccc(F)cc2)c1N)C(F)(F)F)C(=O)c1ccccc1` (racemic) [Example 25 (racemic), 5-amino-1-(4-fluorophenyl)-N-(3,3,3-trifluoro-2-hydroxy-2-{[methyl(phenylcarbonyl)amino]methyl}propyl)-1H-pyrazole-4-carboxamide], the IC50 on glucocorticoid receptor and on GR [1] (setting [4]) was less than 1000 nM each time.
For the compound `CN(CC(O)(CNC(=O)c1cnn(-c2ccc(F)cc2)c1N)C(F)(F)F)C(=O)c1cccc(C(F)(F)F)c1` (racemic) [Example 26 (racemic), 5-amino-1-(4-fluorophenyl)-N-{3,3,3-trifluoro-2-hydroxy-2-[(methyl{[3-(trifluoromethyl)phenyl]carbonyl}amino)methyl]propyl}-1H-pyrazole-4-carboxamide], the IC50 on glucocorticoid receptor is less than 1000 nM.
Regarding `CN(CC(O)(CNC(=O)c1cnn(-c2ccc(F)cc2)c1N)C(F)(F)F)C(=O)c1ncccc1F` (racemic) [Example 29 (racemic), N-{2-[({[5-amino-1-(4-fluorophenyl)-1H-pyrazol-4-yl]carbonyl}amino)methyl]-3,3,3-trifluoro-2-hydroxypropyl}-3-fluoro-N-methyl-2-pyridinecarboxamide], the IC50 at GR [1] (setting [4]) is less than 1000 nM.
On to `CCN(CC(O)(CNC(=O)c1cnn(-c2ccccc2Cl)c1N)C(F)(F)F)C(=O)c1ccccc1` (racemic) [Example 36 (racemic), 5-amino-1-(2-chlorophenyl)-N-(2-{[ethyl(phenylcar-bonyl)amino]methyl}-3,3,3-trifluoro-2-hydroxypropyl)-1H-pyrazole-4-carboxamide], for which, at glucocorticoid receptor, the IC50 was less than 1000 nM.
Regarding `CN(CC(O)(CNC(=O)c1cnn(-c2ccc(F)cc2)c1N)C(F)(F)F)C(=O)c1cccc2cccnc12` (racemic) [Example 42 (racemic), N-{2-[({[5-amino-1-(4-fluorophenyl)-1H-pyrazol-4-yl]carbonyl}amino)methyl]-3,3,3-trifluoro-2-hydroxypropyl}-N-methyl-8-quinolinecarboxamide], the Emax on GR [1] (A549 SPAP cells) and at GR [2] was no less than 40% in each case. Moreover, at GR [1] (setting [3]), the IC50 was less than 316 nM.
Regarding `Nc1c(C(=O)NCC(O)(CN(CCF)C(=O)c2ccccc2)C(F)(F)F)cnn1-c1ccc(F)cc1` (single isomer, unassigned) [Example 1 Enantiomer 2, 5-Amino-1-(4-fluorophenyl)-N-(3,3,3-trifluoro-2-{[(2-fluoroethyl)(phenylcarbonyl)amino]methyl}-2-hydroxypropyl)-1H-pyrazole-4-carboxamide], the Emax on GR [1] (A549 SPAP cells) and at GR [2] was no less than 40% throughout. The IC50 on GR [1] (setting [3]) is less than 316 nM.
With `CCN(CC(O)(CNC(=O)c1cnn(-c2ccc(F)cc2)c1N)C(F)(F)F)C(=O)c1ccccc1` (single isomer, unassigned) [Example 14 Enantiomer 2, 5-amino-N-(2-{[ethyl(phenylcar-bonyl)amino]methyl}-3,3,3-trifluoro-2-hydroxypropyl)-1-(4-fluorophenyl)-1H-pyrazole-4-carboxamide], the Emax at GR [1] (A549 SPAP cells) and at GR [2] was no less than 40% in each case. Besides, the IC50 on GR [1] (setting [4]) is less than 1000 nM; at GR [1] (setting [3]), less than 316 nM.
